Type in all cases: biochemical
For assay [1], the system named is Leu-aminopeptidase. The assay is described as follows: Titration of Leu-aminopeptidase with pro-substrate and luciferin detection reagent. Particulars: pro-substrate 20, 2 or 0.2 uM; Leu-aminopeptidase serially diluted; luminescence every 5 min for 90 min. As for the experimental part: To a lyophilized vial of luciferin detection reagent (Promega; V859A), 10 ml of a solution of 100 mM HEPES pH 7.5/10 mM MgSO4 was added and allowed to equilibrate for 30 minutes at room temperature.
A 20 uM solution of Leu-luciferin and a 20 uM solution of PBI-5044 were prepared in a solution of 100 mM HEPES/0.1% Prionex. The 20 uM solution of PBI-5044 was then serially diluted in the HEPES/Prionex solution to 2 uM and 0.2 uM solutions.
1 U/ml Leu-aminopeptidase (Sigma) was serially diluted (FIG. 1) into each of the luciferin dilutions (20 uM Leu-luciferin, 20 uM PBI-5044, 2 uM PBI-5044 or 0.2 uM PBI-5044). For example, 50 ul 1 U/ml Leu-aminopeptidase was added to 450 ul luciferin dilution (final concentration of Leu-aminopeptidase was 0.1 U/ml). Leu-aminopeptidase was then serially diluted by adding 150 ul Leu-aminopeptidase solution to 350 ul of each prepared luciferin derivative.
In triplicate, 50 ul of each serially diluted Leu-aminopeptidase/luciferin sample was added to a well of a white, 96-well assay plate (Costar 3355), and 50 ul of the equilibrated luciferin detection reagent added to each sample. Luminescence was detected every 5 minutes for 90 minutes on a GloMax® Multi luminometer (Promega) at room temperature.

Assay [2] relates to Aminopeptidase. Nature of the assay: Multiplexing of Leu-luciferin and PBI-5044 with filtered luminescence. Particulars: 20 uM Leu-Luciferin/20 uM PBI-5044; 630 long pass and 525 short pass filters. On the procedure:
To a lyophilized vial of luciferin detection reagent (Promega; V859A), 10 ml of a solution of 100 mM HEPES pH 7.5/10 mM MgSO4 was added (LDR) and allowed to equilibrate for 30 minutes at room temperature.
Aminopeptidase was diluted to 0.01 u/ml into a solution containing 100 mM HEPES pH 7.5 and 0.1% Prionex. The following solutions were then prepared in the aminopeptidase dilution: • 1. 20 uM Leu-Luciferin, • 2. 20 uM PBI-5044, • 3. 20 uM Leu-Luciferin/20 uM PBI-5044
In triplicate, 50 ul of each of the above mixtures (1-3) was added to 50 ul of LDR and incubate for 15 minutes. Luminescence was measured on a GloMax® 96 luminometer equipped with a 630 long pass filter (Edmond Optics 253253) and a 525 short pass filter (Edmond Optics 84694).

The subject of assay [3] is esterase. Nature of the assay: Effect of esterase on bioluminescence of ester pro-substrate. Particulars: serial dilutions; luciferin detection reagent with esterase, with or without UltraGlo luciferase. As for the experimental part: Reconstitution buffer with esterase (10 ml; Promega Cat. No. V144A) and luciferin detection reagent (Promega; V859A) were mixed and incubated at room temperature for 30 minutes (“Luciferin Detection Reagent”). UltraGlo® luciferase (210 ul of 5.7 mg/ml; Promega) was then added to 3 mls of the luciferin detection reagent.
Serial dilutions of PBI-5045 (isonaphtholuciferin methyl ester) were made in a solution of 100 mM HEPES/10 mM MgSO4. 50 ul of each serially diluted PBI-5045 was then added to a well of a white, 96-well assay plate (n=6). Then, either 50 ul luciferin detection reagent or luciferin detection reagent with UltraGlo® luciferase was added to the wells. Luminescence was detected on a GloMax® Multi+ luminometer (Promega).
FIGS. 4A and 4B show the effects of esterase on PBI-5045.

The structures appear in SMILES notation.

In the case of `CC(C)C[C@H](N)C(=O)Nc1ccc2c(ccc3nc(C4=NC(C(=O)O)CS4)sc32)c1` (stereo partly drawn) [PBI-5044, 2-(7-(Leucinyl)aminonaphtho[2,1-d]thiazol-2-yl)-4,5-dihydrothiazole-4-carboxylic acid], the “bioluminescent response as a function of added aminopeptidase (reporting protease activity)” value in assay [1] is given as “successful use in reporting protease activity”. Besides, the “separation of bioluminescence from luciferin by filters (multiplexing)” value in assay [2] is “luminescence from each detected with little interference from the other”.

Take `COC(=O)C1CSC(c2nc3ccc4cc(O)ccc4c3s2)=N1` (stereo not drawn) [PBI-5045, 2-(7-Hydroxynaphtho[2,1-d]thiazol-2-yl)-4,5-dihydrothiazole-4-carboxylic acid methyl ester]: in assay [3], the “luminescence in presence of esterase (reporting esterase activity)” value is “successful use in reporting esterase activity”.

(Values after patent US9868977B2, “Red-shifted luciferins and methods of using same” (PROMEGA CORPORATION, priority 2013, dated 2018).)
